{"source": "patent US8173387B2", "about": "“Method of examining chemical using gene-disrupted strain” (priority 2003, dated 2012)", "format_in_all_cases": "cell-based, Saccharomyces cerevisiae", "key": {"[1]": {"system": "gene-disrupted strain DEL002 (YDR027C) transformed with a plasmid p-YBR072W", "assay": "promoter assay (GFP reporter), Example 2", "conditions": "GFP fluorescence 4 hours after loading, parent strain BY4743", "method": "(§1) In a gene-disrupted strain, a growing rate becomes small so much, or medium components in which the strain can be grown are different in some cases, depending on a disrupted gene. Then, in the present experiment studying a host cell of a promoter assay method, in view of easy comparison with a control experiment, among gene-disrupted strains obtained as the result of Example 1, a few strains which have sensitivity to many chemicals and are grown by the same procedure as that of a parent strain were selected. Selected gene-disrupted strains are 8 strains of DEL000, DEL002, DEL011, DEL014, DEL016, DEL019, DEL022 and DEL025 in Table 7. Further, as a control, a parent strain, BY4743 was used.\n(§2) A competent cell of each of a parent strain of a gene-disrupted strain and selected gene-disrupted strains was prepared. This competent cell was transformed using two kinds of prepared plasmids for promoter assay, p-YBR072W (in which GFP was connected understream of a promoter of YBR072W) and p-YPL171C (in which GFP was connected downstream of a promoter of YPL171C).\n(§3) The resulting transformant was grown to the steady state by shaking-culturing on a SD medium (histidine, leucine) at 25° C. The transformant in the steady state was diluted 500-fold with the same medium, shaking-cultured at 25° C. for 15 hours and, after it was confirmed that an absorbance at 600 nm was 0.2 to 0.5 as a logarithmic growth phase, chemicals having different concentrations were loaded. After loading of chemicals, fluorescence of cells which had been cultured for 4 hours was measured using a flow cytometer (FITC filter, EPICS XL-MCL, Bechmancoulter), and this was adopted as an expression amount of GFP (green fluorescence protein) which is a marker gene. A fluorescence intensity of 10000 cells was measured with a flow cytometer by one measurement and an average of fluorescence intensities of all cells was obtained, and was adopted as a measured value. Similarly, a fluorescence intensity of a cell to which a chemical had not been loaded was obtained, and results are shown as a fluorescence intensity ratio."}, "[2]": {"system": "gene-disrupted strain DEL011 (YGL240W) transformed with a plasmid p-YBR072W", "assay": "promoter assay (GFP reporter), Example 2", "conditions": "GFP fluorescence 4 hours after loading, parent strain BY4743", "method": "as §1, §2, §3"}, "[3]": {"system": "gene-disrupted strain DEL016 (YCR028C) transformed with a plasmid p-YBR072W", "assay": "promoter assay (GFP reporter), Example 2", "conditions": "GFP fluorescence 4 hours after loading, parent strain BY4743", "method": "as §1, §2, §3"}, "[4]": {"system": "gene-disrupted strain DEL019 (YIL036W) transformed with a plasmid p-YBR072W", "assay": "promoter assay (GFP reporter), Example 2", "conditions": "strain printed DEL019025, p-YBR072W, GFP fluorescence 4 hours after loading, parent strain BY4743", "method": "as §1, §2, §3"}, "[5]": {"system": "gene-disrupted strain DEL025 (YLR311C) transformed with a plasmid p-YBR072W", "assay": "promoter assay (GFP reporter), Example 2", "conditions": "strain printed DEL, p-YBR072W, GFP fluorescence 4 hours after loading, parent strain BY4743", "method": "as §1, §2, §3"}, "[6]": {"system": "homozygous diploid of gene-disrupted strain DEL008 (YLR447C) transformed with a plasmid p-YPL171C", "assay": "promoter assay (GFP reporter), Example 3", "conditions": "W303 background", "source_text": "(§4) In order to prepare a gene-disrupted strain transformation cassette, genes having chemical sensitivity; YPR036W(DEL000), YDL151C(DEL001), YGL026C(DEL003), YHR039C-A(DEL006), YKL080W(DEL007), YLR447C(DEL008), YGR006W(DEL012), YGR105W(DRL013), YJR104C(DEL014), YGL206C(DEL018), YIL036W(DEL019), YKL119C(DEL020), YLR226W(DEL022) and YLR311C(DEL025) in Table 7 were selected, and each gene was replaced with a transformation marker such as kanamycin resistance. As primers for performing PCT amplification, a N-terminal side (ORF(upper)) and a C-terminal side (ORF(lower)) in each ORF were used. A length of a sequence (ORF(upper) and ORF(lower)) of a primer homologues with ORF was 46 or 50 bp.\n(§5) A W303 a mating type (ATCC200903) and a W303α mating type (ATCC201238) in which the same gene was gene disruption-manipulated were mated by a mating procedure (Yeast Gene Experimental Manual: Maruzen Co., Ltd., p 83-92) to prepare homozygous diploids. Separately, mating of a W303a mating type, and a non-gene-disrupted W303α type was performed by the similar procedure to prepare heterozygous diploids.\n(§6) By such the procedure, homozygous diploids of DEL000, DEL001, DEL003, DEL006, DEL007, DEL008, DEL012, DEL013, DEL014, DEL018, DEL019, DEL020, DEL022 and DEL025 in Table 7 were prepared. In addition, heterozygous diploids in which DEL006, DEL014 and DEL 022 were mated with a non-gene-disrupted strain (hereafter, referred to as DEL006 heterozygous diploid, DEL 014 heterozygous diploid, DEL022 heterozygous diploid) and, further, a heterozygous diploid in which DEL000 and DEL014 were mated (hereafter, referred to as DEL000/014 heterozygous diploid) were prepared.\n(§7) Competent cells of W303 ATCC201239 (MATa/MATα leu2-3/leu2-3 leu2-112/leu2-112 trp1-1/trp1-1 ura3-1/ura3-1 his 3-11/his3-11 his3-15/his3-15 ade2-1/ade2-1 can1-100/can1-100) which is a parent strain of gene-disrupted strains, and each of prepared gene-disrupted strains were prepared. The competent cells were transformed using two kind of prepared plasmid for promoter assay, p-YBR072W (in which GFP is connected downstream of a promoter of YBR072W) and p-YPL171C (in which GFP is connected downstream of a promoter of YPL171C).\n(§8) The resulting transformant was grown to the steady state by shaking-culturing on a SD medium (adenine, hystidine, triptophan, leucine) at 25° C. The transformant in the steady state was diluted 500-fold with the same medium, shaking-cultured at 25° C. for 15 hours and, after it was confirmed that an absorbance at 600 nm was 0.2 to 0.5 as a logarithmic growth phase, chemicals having different concentrations were loaded. After loading of chemicals, fluorescence of cells which had been cultured for 4 hours was measured using a flow cytometer (FITC filter, EPICS XL-MCL, Bechmancoulter), and this was adopted as an expression amount of GFP (green fluorescence protein) which is a marker gene. A fluorescence intensity of 10000 cells was measured with a flow cytometer by one measurement and an average of fluorescence intensities of all cells was obtained, and was adopted as a measured value. Similarly, a fluorescence intensity of a cell to which a chemical had not been loaded was obtained, and results are shown as difference in a fluorescence intensity."}, "[7]": {"system": "homozygous diploid of gene-disrupted strain DEL003 (YGL026C) transformed with a plasmid p-YPL171C", "assay": "promoter assay (GFP reporter), Example 3", "conditions": "W303 background", "source_text": "as §4, §5, §6, §7, §8"}, "[8]": {"system": "homozygous diploid of gene-disrupted strain DEL022 (YLR226W) transformed with a plasmid p-YPL171C", "assay": "promoter assay (GFP reporter), Example 3", "conditions": "W303 background", "source_text": "as §4, §5, §6, §7, §8"}, "[9]": {"system": "heterozygous diploid DEL000/014 transformed with a plasmid p-YPL171C", "assay": "promoter assay (GFP reporter), Example 3", "conditions": "heterozygous diploid DEL000/014, p-YPL171C, W303 background", "source_text": "as §4, §5, §6, §7, §8"}, "[10]": {"system": "homozygous diploid of gene-disrupted strain DEL006 (YHR039C-A) transformed with a plasmid p-YPL171C", "assay": "promoter assay (GFP reporter), Example 3", "conditions": "W303 background", "source_text": "as §4, §5, §6, §7, §8"}, "[11]": {"system": "homozygous diploid of gene-disrupted strain DEL014 (YJR104C) transformed with a plasmid p-YPL171C", "assay": "promoter assay (GFP reporter), Example 3", "conditions": "W303 background", "source_text": "as §4, §5, §6, §7, §8"}, "[12]": {"system": "gene-disrupted strain DEL011 (YGL240W) transformed with a plasmid p-YPL171C", "assay": "promoter assay (GFP reporter), Example 2", "conditions": "GFP fluorescence 4 hours after loading, parent strain BY4743", "method": "as §1, §2, §3"}, "[13]": {"system": "gene-disrupted strain DEL014 (YJR104C) transformed with a plasmid p-YBR072W", "assay": "promoter assay (GFP reporter), Example 2", "conditions": "GFP fluorescence 4 hours after loading, parent strain BY4743", "method": "as §1, §2, §3"}, "[14]": {"system": "gene-disrupted strain DEL016 (YCR028C) transformed with a plasmid p-YPL171C", "assay": "promoter assay (GFP reporter), Example 2", "conditions": "GFP fluorescence 4 hours after loading, parent strain BY4743", "method": "as §1, §2, §3"}, "[15]": {"system": "homozygous diploid of gene-disrupted strain DEL007 (YKL080W) transformed with a plasmid p-YPL171C", "assay": "promoter assay (GFP reporter), Example 3", "conditions": "W303 background", "source_text": "as §4, §5, §6, §7, §8"}, "[16]": {"system": "homozygous diploid of gene-disrupted strain DEL001 (YDL151C) transformed with a plasmid p-YPL171C", "assay": "promoter assay (GFP reporter), Example 3", "conditions": "W303 background", "source_text": "as §4, §5, §6, §7, §8"}, "[17]": {"system": "homozygous diploid of gene-disrupted strain DEL020 (YKL119C) transformed with a plasmid p-YPL171C", "assay": "promoter assay (GFP reporter), Example 3", "conditions": "DEL0020 homozygous diploid, W303 background", "source_text": "as §4, §5, §6, §7, §8"}, "[18]": {"system": "heterozygous diploid of gene-disrupted strain DEL006 (YHR039C-A) transformed with a plasmid p-YPL171C", "assay": "promoter assay (GFP reporter), Example 3", "conditions": "W303 background", "source_text": "as §4, §5, §6, §7, §8"}}, "data": [{"molecule": "[Cl][Cd][Cl]", "note": "[cadmium chloride]", "values": [{"measurement": "concentration at which the strain responded, as fraction of a concentration of a parent strain", "setting": "[1]", "result": "1/3"}, {"measurement": "concentration at which the strain responded, as fraction of a concentration of a parent strain", "setting": "[2]", "result": "1/3"}, {"measurement": "concentration at which the strain responded, as fraction of a concentration of a parent strain", "setting": "[3]", "result": "1/3"}, {"measurement": "concentration at which the strain responded, as fraction of a concentration of a parent strain", "setting": "[4]", "result": "1/3"}, {"measurement": "concentration at which the strain responded, as fraction of a concentration of a parent strain", "setting": "[5]", "result": "1/3"}]}, {"molecule": "O=[As][O-].[Na+]", "note": "[sodium metaarsenite]", "values": [{"measurement": "concentration at which sensitivity is shown, as fraction of a concentration of a gene-non-disrupted strain", "setting": "[6]", "result": "1/3"}, {"measurement": "concentration at which sensitivity is shown, as fraction of a concentration of a gene-non-disrupted strain", "setting": "[7]", "result": "1/3"}, {"measurement": "concentration at which sensitivity is shown, as fraction of a concentration of a gene-non-disrupted strain", "setting": "[8]", "result": "1/3"}, {"measurement": "concentration at which sensitivity is shown, as fraction of a concentration of a gene-non-disrupted strain", "setting": "[9]", "result": "1/30"}, {"measurement": "concentration at which sensitivity is shown, as fraction of a concentration of a gene-non-disrupted strain", "setting": "[10]", "result": "1/30"}, {"measurement": "concentration at which sensitivity is shown, as fraction of a concentration of a gene-non-disrupted strain", "setting": "[11]", "result": "1/30"}, {"measurement": "concentration at which the strain responded, as fraction of a concentration of a parent strain", "setting": "[2]", "result": "1/10"}, {"measurement": "concentration at which the strain responded, as fraction of a concentration of a parent strain", "setting": "[3]", "result": "1/3"}, {"measurement": "concentration at which the strain responded, as fraction of a concentration of a parent strain", "setting": "[12]", "result": "1/3"}, {"measurement": "concentration at which the strain responded, as fraction of a concentration of a parent strain", "setting": "[13]", "result": "1/3000"}]}, {"molecule": "[Cl][Hg][Cl]", "note": "[mercuric chloride]", "values": [{"measurement": "concentration at which the strain responded, as fraction of a concentration of a parent strain", "setting": "[14]", "result": "1/3"}, {"measurement": "concentration at which the strain responded, as fraction of a concentration of a parent strain", "setting": "[12]", "result": "1/10"}]}, {"molecule": "CN(C)C(=S)SSC(=S)N(C)C", "note": "[thiuram]", "values": [{"measurement": "concentration at which sensitivity is shown, as fraction of a concentration of a gene-non-disrupted strain", "setting": "[15]", "result": "1/1000"}, {"measurement": "concentration at which sensitivity is shown, as fraction of a concentration of a gene-non-disrupted strain", "setting": "[16]", "result": "1/3"}, {"measurement": "concentration at which sensitivity is shown, as fraction of a concentration of a gene-non-disrupted strain", "setting": "[17]", "result": "1/3"}, {"measurement": "concentration at which sensitivity is shown, as fraction of a concentration of a gene-non-disrupted strain", "setting": "[8]", "result": "1/1000"}, {"measurement": "concentration at which sensitivity is shown, as fraction of a concentration of a gene-non-disrupted strain", "setting": "[18]", "result": "1/10"}, {"measurement": "concentration at which sensitivity is shown, as fraction of a concentration of a gene-non-disrupted strain", "setting": "[10]", "result": "1/10"}]}]}
